Experiments:
[1] = system: primary B-cells (AID+); experiment: Dose response in primary B-cells (AID+); format: cell-based; conditions: FIG. 10
Procedure: Dose responses for C-1523 (blue) and C-1523-1a (red) in primary B-cells (AID+) was determined (FIG. 10).

[2] = system: U2OS cells; experiment: DR-GFP reporter assay (HR repair of endonuclease generated DSB); format: cell-based, human; conditions: 100 nM or 1 μM
[3] = system: primary B-cells from Trp53−/− mice; experiment: Viability of activated primary B-cells; format: cell-based, mouse; conditions: 100 nM, 4-day activation
Procedure: Cell death mediated by C-1523 is p53-dependent. It was hypothesized that AID-dependent cytotoxicity induced by C-1523 would be associated with p53-mediated apoptosis. To test the importance of p53, a central regulator of cellular responses to DNA damage, viability was measured in mouse primary B-cells from Trp53+/+ versus Trp53−/− mice following exposure to C-1523. […] Caspase 3 activation, a marker of apoptotic cell death, was measured in C-1523 treated B-cells. B-cells were stained with an antibody that recognizes cleaved, activated caspase-3 (AC3) and the number of AC3-positive cells was measured via immunofluorescence microscopy. Following 10 Gy of ionizing irradiation Trp53+/+(WT), but not Trp53−/− cultures show a >30-fold increase in the percentage of AC3+ cells, confirming Trp53 dependent apoptosis in these cells after DNA damage. […] In order to more completely rule out apoptosis as the mode of cell death following C-1523 treatment in B cells, the expression of other common markers of apoptotic induction was examined via Western Blot.
Cell lines and cell culture. […] Immunofluorescence.

[4] = system: primary WT mouse splenic B cells; experiment: H2AX foci immunostaining in activated B-lymphocytes; format: cell-based; conditions: 100 nM
Procedure: FIG. 15A depicts an analysis of primary WT (AID+/+, closed markers) and AID−/− (open markers) murine B cell proliferation under activating conditions (αCD40 and IL-4 on days 0 and 2) and treated with the indicated doses of C-1523 for 4 days. Measurement of cell proliferation was determined by Trypan Blue staining and counting of viable, non-staining, cells via hemocytometer. Data are represented as the mean cell count for each condition. FIG. 15B depicts data from experiments in which primary B cells from A were stained with PI on day 4 and analyzed via flow cytometry for the percentage of cells that were non-viable, PI-positive (PI+). FIG. 15C depicts RT-PCR analysis of AID expression in cultured human cell lines. Water (H2O) and RNA from HEK293T cells were employed as negative controls for template and AID expression, respectively, and human activated B lymphocyte RNA (Stim B) was used as a positive control. GAPDH expression was included as a loading control. […] Viability was determined by Trypan Blue staining and counting via hemocytometer. […] FIG. 15F depicts quantitation of foci observed in AID−/− and WT cells represented in FIG. 15E. […]
To determine whether the cytotoxic effect of C-1523 in AID-expressing cells was associated with DNA damage overload, the accumulation of unrepaired AID-initiated DSBs was measured by H2AX immunoostaining, in activated mouse B-lymphocytes (FIGS. 15E, 15F). […]

[5] = system: WT, AID−/−, or Trp53−/− B-cells; experiment: Active caspase-3 (AC3) immunofluorescence; format: cell-based, mouse; conditions: 100 nM, 3 days after activation
Procedure: FIG. 16A depicts the measurement of viability of primary WT (AID+/+, circle markers), AID−/− (square markers), and p53−/− (triangle markers) B cells under activating conditions (αCD40 and IL-4 on days 0 and 2) and treated with either DMSO (filled in markers) or 100 nM C-1523 (open markers). Measurement of cell viability was determined by Trypan Blue staining and counting of viable, non-staining, cells via hemocytometer. Data are represented as the mean cell count for each condition. FIG. 16B depicts analysis of cell death on day 4 of cells treated as in FIG. 16A. Cell death was measured by Trypan Blue staining and counting of blue, dead cells via hemocytometer. FIG. 16C depicts quantitation of active caspase-3 (AC3) in primary B cells via immunofluorescence assay. Left, positive (WT, 10 Gy IR) and negative (0 Gy, and p53−/− 10 Gy) controls for AC3 induction. […]
Cell death mediated by C-1523 is p53-dependent. […] To test the importance of p53, a central regulator of cellular responses to DNA damage, viability was measured in mouse primary B-cells from Trp53+/+ versus Trp53−/− mice following exposure to C-1523. […] Caspase 3 activation, a marker of apoptotic cell death, was measured in C-1523 treated B-cells. B-cells were stained with an antibody that recognizes cleaved, activated caspase-3 (AC3) and the number of AC3-positive cells was measured via immunofluorescence microscopy. […]

[6] = system: primary splenic B-cells from AID−/− mice; experiment: Expansion and viability of activated primary splenic B-cells; conditions: 50-250 nM, four days, αCD40+IL-4 activation
[7] = biological target: RAD51 (Mus musculus, UniProt Q08297); experiment: RAD51 nucleocytoplasmic distribution by cell fractionation and Western blotting; format: cell-based; parameters: quantitation of RAD51 expression in nuclear and cytoplasmic fractions as determined by Western Blot; endogenous in cells
Procedure: It was next tested whether C-1523 would affect RAD51 localization or DNA damage-induced focus formation. Primary mouse B-cells were treated with 100 nM C-1523 (or vehicle control) and given either 0 or 2.5Gy ionizing irradiation. Following recovery in cell culture, cells were fixed and stained for immunofluorescence imaging to measure subcellular localization of RAD51. […] To confirm the effect of C-1523 on RAD51 subcellular localization, nucleocytoplasmic distribution was independently measured following C-1523 treatment by cell fractionation and Western blotting (FIG. 13D; Supplemental FIG. 2). […] This effect on subcellular localization was specific to RAD51, as localization of NF-kB, which undergoes nuclear translocation and homing to genomic target sites after cell stimulation, was unaffected by C-1523 exposure (FIGS. 13E-13F).

Chain of RAD51 (Q08297 whole entry): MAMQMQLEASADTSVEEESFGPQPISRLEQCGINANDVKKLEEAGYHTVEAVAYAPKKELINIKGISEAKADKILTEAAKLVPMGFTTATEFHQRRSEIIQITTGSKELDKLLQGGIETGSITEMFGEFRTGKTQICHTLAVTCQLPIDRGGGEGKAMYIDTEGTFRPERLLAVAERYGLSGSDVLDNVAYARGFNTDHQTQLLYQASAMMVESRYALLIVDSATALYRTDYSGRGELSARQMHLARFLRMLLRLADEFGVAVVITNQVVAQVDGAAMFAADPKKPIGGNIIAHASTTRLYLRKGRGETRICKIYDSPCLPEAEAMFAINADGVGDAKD

## CC(=O)Nc1ccc(/C=C/c2ccc(NC(=S)NC(C)C)cc2S(=O)(=O)O)c(S(=O)(=O)O)c1 [C-1523, (E)-5-acetamido-2-(4-(3-isopropylthioureido)-2-sulfonatostyryl)benzenesulfonate]
[1]
  concentration above which dose response is inverted: above 100 nM
[2]
  change in GFP-positive cells: no significant change
[3]
  viability: did not show reduced viability
[4]
  fraction of cells with supernumerary foci (3-10 per cell): significant increase
[4]; αCD40 and IL-4
  H2AX foci: accumulation of H2AX foci
[5]
  caspase 3 activation: did not significantly induce caspase 3 activation
[6]
  cellular expansion: expanded identically to vehicle-treated controls
[7]
  fraction of RAD51 localized to the nucleus, following irradiation: small, but measurable reduction

From US10927075B2, “Compositions and methods relating to the treatment of cancer, autoimmune disease, and neurodegenerative disease” (THE JACKSON LABORATORY, priority 2014, dated 2021)
